Source: patent publication US20210106574A1, “Methods of Treating Cancer” (Tesaro, Inc., priority 2017, published 2021)
Structures can show the parent of a compound that is named as a salt. Where two headings read alike, the source gives them in different places.

Tests used:
[1] = system: cancer cell lines silenced for or carrying mutations of BRCA-1 or BRCA-2; Ewing's sarcoma, ALL, NSCLC, SCLC and ATM-inactivated tumor cell lines; conditions: cell lines silenced for BRCA-1 or BRCA-2 or carrying BRCA-1 or BRCA-2 mutations compared to wild type counterparts; cited from earlier work
[2] = system: platinum-sensitive recurrent ovarian cancer patients
Description: Two cohorts were treated: the germline BRCA mutant positive cohort (gBRCAmut) and the non-germline BRCA cohort (non-gBRCAmut). […] Patients in this cohort were germline BRCA mutation carriers as assessed by the FDA-approved Integrated BRACAnalysis test. Patients in the non-gBRCAmut were negative in the FDA-approved Integrated BRACAnalysis test.
This objective is independently evaluated in a cohort of patients with germline BRCA mutation (gBRCAmut) and in a cohort of patients who have high grade serous or high grade predominantly serous histology but without such gBRCA mutations (non-gBRCAmut). […] Accordingly, HRD is used as a tumor biomarker classifier to be evaluated.
Study treatment was dispensed to patients on Day 1 and every cycle (28 days) thereafter until the patient discontinued study treatment. Study treatment was administered orally once daily continuously. Three capsules of 100 mg strength were taken at each dose administration. Clinic visits occurred in each cycle (every 4 weeks 3 days). Response evaluation criteria in solid tumors (RECIST) tumor assessment via computed tomography (CT) or magnetic resonance imaging (MRI) scan of abdomen/pelvis and clinically indicated areas was required at the end of every 2-cycles (8-weeks with a window of 7 days from date of visit) through Cycle 14, then at the end of every 3-cycles (12-weeks with a window of 7 days from date of visit) until progression.
Patients were assessed by the prolongation of progression-free survival (PFS). […] Response Evaluation Criteria in Solid Tumors (RECIST) was used for tumor assessment via a computed tomography (CT) or magnetic resonance imaging (MRI) scan of abdomen/pelvis and clinically indicated areas, which was required at the end of every 2-cycles (8-weeks) through cycle 14 (56-weeks), and then at the end of every 3-cycles (12-weeks) until progression.
Following completion of the NOVA study, formalin-fixed, paraffin-embedded (FFPE) archival tumor samples from NOVA patients were retrospectively analyzed using a pre-specified gene panel. […]

HRR mutant PDX models = system: HRR mutant PDX models
Description: The relative contribution of the loss of BRCA and non-BRCA HRR genes to PARP synthetic lethality in additional indications other than ovarian and breast was also evaluated. To this end, CRISPR/Cas9 technology was utilized to knock-out either the single or both alleles of 11 clinically-relevant HR genes in two different genetic backgrounds.

[3] = system: MDA-MB-436, CAPAN-1, GRANTA-519, OVCAR3, HT29 and DLD-1, patient derived Ewing's sarcoma, and TNBC xenograft models; conditions: xenograft models in mice; cited from earlier work
[4] = system: HRR11 KO isogenic Dld-1 cell lines; conditions: bi-allelic mutations in BRCA1, BRCA2, PALB2 and ATM (FIG. 5)
Description: CRISPR/Cas9 technology was used to knock-out either the single or both alleles of 11 clinically-relevant HR genes in two different genetic backgrounds, using Dld-1 and HeLa cell lines. […] Compounds were added 24 h after cell seeding, and then every 3- to 4-days (2-times a week) during the incubation period (for 13-days incubation period).

PARP activity = conditions: stimulated by hydrogen peroxide, various cell lines, cited from earlier work
ovarian cancer patients = conditions: cited from earlier work
[5] = system: patients with advanced BRCA-mutant ovarian cancer; conditions: cited from earlier work
[6] = ATM bi-allelic mutant NSCLC PDX models
[7] = 106 patients, 600 mg orally twice daily

In the case of Cc1ccc(S(=O)(=O)O)cc1.NC(=O)c1cccc2cn(-c3ccc([C@@H]4CCCNC4)cc3)nc12 [Niraparib, (3S)-3-[4-{7-(aminocarbonyl)-2H-indazol-2-yl}phenyl]piperidine], the anti-proliferative activity [1] is listed as “selective anti-proliferative activity”, the “Median Progression Free Survival (PFS)” value ([2]; Non-tBRCA1/2 HRR mutant) is listed as 15.7 and the “Median Progression Free Survival (PFS)” value ([2]; tBRCA1/2 mutant) is listed as 15.4. The “effectiveness of niraparib treatment” value ([2]; tBRCA wildtype patients with at least one mutation in 31 DDR gene panel compared to no mutation) was “similarly effective”, the “models sensitive to niraparib” value (NSCLC PDX models; [6]) was 2 out of 8 and the “models sensitive to niraparib” value (NSCLC PDX models; HRR WT NSCLC PDX models (3 out of 40)) was 7.5%. The “PDX models with strong sensitivity, TGI>70%” value (HRR mutant PDX models; [6]) was 33%, the “PDX models with moderate sensitivity, TGI≥50%” value (HRR mutant PDX models; ATM bi-allelic mutant PDX models) was 14% and the “PDX models with TGI≥50%” value (HRR mutant PDX models; ATM monoallelic mutant PDX models) was 0/6. The “models sensitive with ≥50% TGI” value (HRR mutant PDX models; BAP bi-allelic mutations, across 5-tumor types) was 36%, the “PDX models with moderate sensitivity, ≥50% TGI” value (HRR mutant PDX models; BRCA1/2 bi-allelic mutant PDX models) was 43% and the “PDX models with moderate sensitivity, TGI≥50%” value (HRR mutant PDX models; BRCA2 bi-allelic mutant PDX models) was 43%. For the same compound, the “PDX models with >100% TGI” value (HRR mutant PDX models; OvCa PDX models) was 80%, the “PDX models with strong sensitivity” value (HRR mutant PDX models; PALB2 monoallelic mutant PDX models (1/6)) was 17% and the “niraparib sensitivity based on total growth inhibition (TGI)” value (HRR mutant PDX models; bi-allelic mutations in BRCA1, BRCA2, PALB2 and ATM (FIG. 4)) was “strongest niraparib sensitivity”. For the same compound, the TGI (HRR mutant PDX models; sensitive PALB2 monoallelic mutant PDX model) was 93%, the antitumor activity [3] was “strong antitumor activity” and the “niraparib sensitivity based on total growth inhibition (TGI)” value [4] was “strongest niraparib sensitivity”. The IC50 (PARP activity; read-out: IC50, PARP activity in cells) was roughly 0.004 µM and the IC90 (PARP activity; read-out: inhibitory concentration at 90% of control (IC90), PARP activity in cells) was roughly 0.05 µM.

In the case of O=C(c1cc(Cc2n[nH]c(=O)c3ccccc23)ccc1F)N1CCN(C(=O)C2CC2)CC1 [olaparib, 4-[(3-{[4-(cyclopropylcarbonyl)piperazin-1-yl]carbonyl}-4-fluorophenyl)methyl]phthalazin-1(2H)-one], the responses (ovarian cancer patients; in 17 patients with BRCA1 or BRCA2 mutations) is given as 7 responses and the responses (ovarian cancer patients; in the 46 who did not have these mutations) is given as 11 responses.

In the case of CNCc1ccc(-c2[nH]c3cc(F)cc4c3c2CCNC4=O)cc1 [rucaparib, 8-fluoro-2-{4-[(methylamino)methyl]phenyl}-1,3,4,5-tetrahydro-6H-azepino[5,4,3-cd]indol-6-one ((1S,4R)-7,7-dimethyl-2-oxobicyclo[2.2.1]hept-1-yl)methanesulfonic acid salt], the “Response assessment by independent radiology review” value [5, 7] is given as 42%, the “median DOR” value [5, 7] is given as 6.7 months and the “Investigator-assessed ORR” value ([5]; platinum-refractory patients) is given as 0%. The “Investigator-assessed ORR” value ([5]; platinum-resistant patients) was 25% and the “Investigator-assessed ORR” value ([5]; platinum-sensitive patients) was 66%.
